In patent publication US20070128217A1 (priority 2003, published 2007):

Legend:
[1] = system: antibodies in sera from SARS patients (sera 1a, 1b, 2, 6, 37, 62, London, SARS-yellow, SARS-green); type: binding, human; design: Binding of serum 6 to linear peptides of protein X1 of SARS-CoV Urbani / Binding of serum 37 to linear peptides of protein X1 of SARS-CoV Urbani / Binding of serum 6 to looped/cyclic peptide (PEPSCAN-ELISA) / Binding of serum 37 to looped/cyclic peptide (PEPSCAN-ELISA) / Binding of serum 37 to looped/cyclic peptides of protein X1 of SARS-CoV Urbani / Binding of serum 6 to linear peptides of protein X2 / Binding of serum 37 to linear peptides of protein X2 / Binding of serum 37 to looped/cyclic peptides of protein X2 of SARS-CoV Urbani / Binding of serum 6 to linear peptides of protein M of SARS-CoV Urbani / Binding of serum 37 to linear peptides of protein M of SARS-CoV Urbani / Binding of serum 6 to looped/cyclic peptides of protein M of SARS-CoV Urbani / Binding of serum 37 to looped/cyclic peptides of protein M of SARS-CoV Urbani / Binding of serum 6 to linear peptides of protein X3 of SARS-CoV Urbani / Binding of serum 37 to linear peptides of protein X3 of SARS-CoV Urbani / Binding of serum 37 to looped/cyclic peptides of protein X3 of SARS-CoV Urbani / Binding of serum 6 to linear peptides of protein X4 of SARS-CoV Urbani / Binding of serum 37 to linear peptides of protein X4 of SARS-CoV Urbani / Binding of serum 37 to looped/cyclic peptides of protein X4 of SARS-CoV Urbani / Binding of serum 6 to linear peptides of protein X5 of SARS-CoV Urbani / Binding of serum 37 to linear peptides of protein X5 of SARS-CoV Urbani / Binding of serum 37 to looped/cyclic peptides of protein X5 of SARS-CoV Urbani / Binding of serum 6 to linear peptides of protein N of SARS-CoV Urbani / Binding of serum 37 to linear peptides of protein N of SARS-CoV Urbani / Binding of serum 6 to linear peptide (PEPSCAN-ELISA) / Binding of serum 1a to looped/cyclic peptides of protein N of SARS-CoV Urbani / Binding of serum 1b to looped/cyclic peptides of protein N of SARS-CoV Urbani / Binding of serum 2 to looped/cyclic peptides of protein N of SARS-CoV Urbani / Binding of serum 6 to looped/cyclic peptides of protein N of SARS-CoV Urbani / Binding of serum 37 to looped/cyclic peptides of protein N of SARS-CoV Urbani / Binding of serum 62 to looped/cyclic peptides of protein N of SARS-CoV Urbani / Binding of serum London to looped/cyclic peptides of protein N of SARS-CoV Urbani / Binding of serum SARS-green to looped/cyclic peptides of protein N of SARS-CoV Urbani: unit not given here
[2] = system: control sera (pooled serum of ten healthy LUMC hospital workers; commercial negative donor pooled serum from the Dutch bloodbank); type: binding, human; design: Binding of Control serum LUMC to linear peptides / Binding of Control serum Blood-bank to linear peptides / Binding of Control serum LUMC to looped peptides / Binding of Control Serum Blood-Bank to Looped peptides / Binding of Control serum LUMC to linear peptides of the protein M of SARS-CoV Urbani / Binding of Control serum Blood-bank to linear peptides of the protein M of SARS-CoV Urbani / Binding of Control serum LUMC to looped peptides of the protein M of SARS-CoV Urbani / Binding of Control Serum Blood-Bank to Looped peptides of the protein M of SARS-CoV Urbani: unit not given here
[3] = system: rabbit serum obtained by immunizing a rabbit with the SARS-CoV strain Frankfurt 1; type: binding; design: Binding of a rabbit serum to linear peptides / Binding of a rabbit serum to looped peptides / Rabbit serum linear peptides / Rabbit serum looped peptides / Binding of a rabbit serum to linear peptides of protein N of SARS-CoV Urbani (Rabbit serum linear peptides) / Binding of a rabbit serum to looped/cyclic peptides of protein N of SARS-CoV Urbani (Rabbit serum looped peptides): unit not given here

Sequence	Binding of Control Serum Blood-Bank to Looped peptides [2]	Binding of Control serum Blood-bank to linear peptides [2]	Binding of Control serum LUMC to linear peptides [2]	Binding of Control serum LUMC to looped peptides [2]	Rabbit serum linear peptides [3]	Rabbit serum looped peptides [3]	Binding of serum 1a to linear peptides of protein X1 of SARS-CoV Urbani [1]	Binding of serum 1a to looped/cyclic peptide (PEPSCAN-ELISA) [1]	Binding of serum 1b to linear peptides of protein X1 of SARS-CoV Urbani [1]	Binding of serum 1b to looped/cyclic peptide (PEPSCAN-ELISA) [1]	Binding of serum 2 to linear peptides of protein X1 of SARS-CoV Urbani [1]	Binding of serum 2 to looped/cyclic peptide (PEPSCAN-ELISA) [1]	Binding of serum 6 to linear peptides of protein X1 of SARS-CoV Urbani [1]	Binding of serum 6 to looped/cyclic peptide (PEPSCAN-ELISA) [1]	Binding of serum 37 to linear peptides of protein X1 of SARS-CoV Urbani [1]	Binding of serum 37 to looped/cyclic peptide (PEPSCAN-ELISA) [1]	Binding of serum 62 to linear peptides of protein X1 of SARS-CoV Urbani [1]	Binding of serum 62 to looped/cyclic peptide (PEPSCAN-ELISA) [1]	Binding of serum London to linear peptides of protein X1 of SARS-CoV Urbani [1]	Binding of serum London to looped/cyclic peptide (PEPSCAN-ELISA) [1]	other results
ALIARCWYLHEGHQT	0.4	0.6	0.4	0.1	0.6	0.0	–	–	–	–	–	–	–	–	–	–	–	–	–	–	Binding of serum 1a to linear peptides of protein X5 of SARS-CoV Urbani [1]: 0.6; Binding of serum 1a to looped/cyclic peptides of protein X5 of SARS-CoV Urbani [1]: 0.6; Binding of serum 1b to linear peptides of protein X5 of SARS-CoV Urbani [1]: 0.5; Binding of serum 1b to looped/cyclic peptides of protein X5 of SARS-CoV Urbani [1]: 0.1; Binding of serum 2 to linear peptides of protein X5 of SARS-CoV Urbani [1]: 0.6; Binding of serum 2 to looped/cyclic peptides of protein X5 of SARS-CoV Urbani [1]: 0.5; Binding of serum 6 to linear peptides of protein X5 of SARS-CoV Urbani [1]: 0.5; Binding of serum 6 to looped/cyclic peptides of protein X5 of SARS-CoV Urbani [1]: 0.3; Binding of serum 37 to linear peptides of protein X5 of SARS-CoV Urbani [1]: 0.7; Binding of serum 37 to looped/cyclic peptides of protein X5 of SARS-CoV Urbani [1]: 0.4; Binding of serum 62 to linear peptides of protein X5 of SARS-CoV Urbani [1]: 0.7; Binding of serum 62 to looped/cyclic peptides of protein X5 of SARS-CoV Urbani [1]: 0.4; Binding of serum London to linear peptides of protein X5 of SARS-CoV Urbani [1]: 0.6; Binding of serum London to looped/cyclic peptides of protein X5 of SARS-CoV Urbani [1]: 0.1; Binding of serum SARS-green to linear peptides of protein X5 of SARS-CoV Urbani [1]: 0.7; Binding of serum SARS-green to looped/cyclic peptides of protein X5 of SARS-CoV Urbani [1]: 0.0; Binding of serum SARS-yellow to linear peptides of protein X5 of SARS-CoV Urbani [1]: 0.2; Binding of serum SARS-yellow to looped/cyclic peptides of protein X5 of SARS-CoV Urbani [1]: 0.0
ALIYFLQCINACRII	0.5	0.5	0.5	0.3	–	–	0.6	0.3	0.6	0.2	0.5	0.4	0.4	0.9	0.7	0.3	0.6	0.3	0.3	1.3	Binding of serum SARS-green to linear peptides of protein X1 of SARS-CoV Urbani [1]: 0.1; Binding of serum SARS-green to looped/cyclic peptide (PEPSCAN-ELISA) [1]: 0.3; Binding of serum SARS-yellow to linear peptides of protein X1 of SARS-CoV Urbani [1]: 0.4; Binding of serum SARS-yellow to looped/cyclic peptide (PEPSCAN-ELISA) [1]: 0.1; Binding of a rabbit serum to linear peptides [3]: 0.7; Binding of a rabbit serum to looped peptides [3]: 0.6
ALNKRWQLALYKGFQ	0.9	0.6	0.6	0.8	–	–	0.7	0.8	0.6	0.6	0.5	0.7	0.5	0.6	0.6	0.6	0.5	0.7	0.2	0.3	Binding of serum SARS-green to linear peptides of protein X1 of SARS-CoV Urbani [1]: 0.2; Binding of serum SARS-green to looped/cyclic peptide (PEPSCAN-ELISA) [1]: 0.4; Binding of serum SARS-yellow to linear peptides of protein X1 of SARS-CoV Urbani [1]: 0.4; Binding of serum SARS-yellow to looped/cyclic peptide (PEPSCAN-ELISA) [1]: 0.6; Recognition of the peptide by the rabbit serum [3]: recognized
ALTCTSTHFAFACAD	0.9	0.7	0.8	0.8	0.6	0.6	–	–	–	–	–	–	–	–	–	–	–	–	–	–	Binding of serum 1a to linear peptides of protein X4 of SARS-CoV Urbani [1]: 0.8; Binding of serum 1a to looped/cyclic peptides of protein X4 of SARS-CoV Urbani [1]: 0.8; Binding of serum 1b to linear peptides of protein X4 of SARS-CoV Urbani [1]: 0.8; Binding of serum 1b to looped/cyclic peptides of protein X4 of SARS-CoV Urbani [1]: 0.7; Binding of serum 2 to linear peptides of protein X4 of SARS-CoV Urbani [1]: 0.5; Binding of serum 2 to looped/cyclic peptides of protein X4 of SARS-CoV Urbani [1]: 0.7; Binding of serum 6 to linear peptides of protein X4 of SARS-CoV Urbani [1]: 0.6; Binding of serum 6 to looped/cyclic peptides of protein X4 of SARS-CoV Urbani [1]: 0.7; Binding of serum 37 to linear peptides of protein X4 of SARS-CoV Urbani [1]: 0.9; Binding of serum 37 to looped/cyclic peptides of protein X4 of SARS-CoV Urbani [1]: 0.9; Binding of serum 62 to linear peptides of protein X4 of SARS-CoV Urbani [1]: 0.9; Binding of serum 62 to looped/cyclic peptides of protein X4 of SARS-CoV Urbani [1]: 0.9; Binding of serum London to linear peptides of protein X4 of SARS-CoV Urbani [1]: 0.8; Binding of serum London to looped/cyclic peptides of protein X4 of SARS-CoV Urbani [1]: 0.3; Binding of serum SARS-green to linear peptides of protein X4 of SARS-CoV Urbani [1]: 0.8; Binding of serum SARS-green to looped/cyclic peptides of protein X4 of SARS-CoV Urbani [1]: 0.8; Binding of serum SARS-yellow to linear peptides of protein X4 of SARS-CoV Urbani [1]: 0.7; Binding of serum SARS-yellow to looped/cyclic peptides of protein X4 of SARS-CoV Urbani [1]: 0.8
